Experimental data published in patent US6495529B1 (Warner-Lambert Company, priority 1998, dated 2002).
pKi: −log10 of the molar value.

What was measured:
α2-receptors = assay: ALPHA-2 binding, p-125Iodoclonidine, canine brain (frontal cortex) membranes; parameters: species or system dog
Experimental: Membranes of mongrel dogs were harvested from the canine frontal cortex and prepared as described for lung except that the final membrane protein concentration was adjusted to 0.5 mg/ml.
Nonspecific binding was determined in separate incubations in the presence of 10 μM phentolamine. The final concentration of p-iodoclonidine was 44-45 pM in competition studies and between 50 pM and 10 nM in saturation experiments. Bound and free […] were separated and the bound quantitated as described above for the ICYP assays.
All data were analyzed with the aid of microcomputer nonlinear curve fitting programs (PRISM 2.0, Graphpad Software, San Diego Calif.).
The receptors resident in each of the three membrane preparations were evaluated by standard saturation analysis following the addition of increasing concentrations of the appropriate radioligand.
The radio ligand added for subsequent α2-displacement assays was adjusted to evaluate only the high affinity receptor. Contributions from p-iodoclonidine binding to imidazoline receptors in the α2-displacement assay were evaluated with epinephrine.

rats = assay: Dosage that raised mean arterial pressure 10% in rat; type: in vivo
Swiss-Webster mice = settings: mice pretreated with 0.01, 0.1 or 1.0 mg/kg triprolidine
Experimental: The mice were immediately placed in the activity testing chamber for a 2-h session. Doses of the test compound were selected from the ascending or descending time of the dose-effect curve determined from the compound-alone studies. Eight mice were tested for each triprolidine/sympathomimetic combination.
Time course data for each compound were considered in 2-way analyses of variance with dose as a between-group and time as a within-group factor. The dose-effect data were considered in 1-way analyses of variance, and planned individual comparisons were conduced between each dose and the saline control group. Interaction studies were considered in 2-way analyses of variance, with Pretreatment and Test dose as the factors.

Compound | pKi (α2-receptors) | IC50 (α2-receptors; Table 4, no unit in table, IC50 defined in μM, read-out: Alpha-2 IC50) [µM] | Dosage of Enantiomer that Raised Mean Arterial Pressure 10%, Rat (rats) [µg] | modification of stimulant or depressant effects by triprolidine pretreatment (Swiss-Webster mice)
CN[C@@H](C)[C@H](O)c1ccccc1 [(−)-ephedrine] | […] | […] | 30 | –
CNC[C@H](O)c1cccc(O)c1 [(−)-phenylephrine] | – | – | 3 to 5 | did not show significant modification of stimulant or depressant effects
